Measurements reported in patent US20240180849A1, “IMMUNOFUNCTIONAL CARRIER, METHODS OF USES, AND COMPOSITION MATTERS AS AN ANTITUMOR IMMUNOTHERAPY” (priority 2021, published 2024).

Columns and labels:
BMDCs = test: Cytotoxicity, propidium iodide staining; assay type: cell-based, mouse; conditions: at ≤PTX 2 μg/mL (and 2E′ 10 μg/mL)
Procedure: (§1) Bone marrow-derived dendritic cells (BMDCs) and bone marrow-derived macrophages (BMDMs) were differentiated from mouse bone marrow cells. The bone marrow was collected from the femur of female Balb/c or male C57BL/6 mice (7 weeks old), pipetted several times, and passed through a 100 and 40 μm cell strainer to obtain single-cell suspension. The cells were collected by centrifugation at 500 ref for 8 min, treated with ACK lysis buffer, rinsed, and cultured in Alpha minimum essential medium (MEM-Alpha, ribonucleosides, deoxyribonucleosides, 4 mM L-glutamine, 1 mM sodium pyruvate) supplemented with 100 units/mL penicillin, 100 μg/mL streptomycin, […] β-mercaptoethanol, 20 ng/ml murine GM-CSF and 20% fetal bovine serum. After 7 days, floating or loosely adherent cells were collected by centrifugation and identified as BMDC by APC anti-mouse CD11c antibody labeling. Adherent cells were identified as BMDM by FITC anti-mouse F4/80 antibody labeling.

splenocytes = test: Cytotoxicity, propidium iodide staining; assay type: cell-based, mouse; conditions: at ≤PTX 2 μg/mL (and 2E′ 10 μg/mL)
Procedure: The spleen was collected from healthy or tumor-bearing mice to isolate splenocytes. The collected spleens were cut into pieces and filtered through 70 μm and 40 μm cell strainers sequentially to obtain a single-cell suspension. The cell suspension was incubated with 1 mL ammonium-chloride-potassium (ACK) lysis buffer for 3 min to remove red blood cells.

B16F10 cells = conditions: 24 h incubation
Procedure: CT26 cells, B16F10 cells, BMDC, or splenocytes were seeded in a 96 well plate at a density of 8,000 cells per well (CT26, B16F10) or 15,000 cells per well (BMBCs, splenocytes). After 24 h incubation, the cell culture medium was replaced with fresh complete medium containing 2E, PEI, 2E′/PTX or 2E′/PTX/siPD-L1 treatments in different concentrations. After incubation for another 24 h, the cell cytotoxicity was measured by the MTT assay (CT26, B16F10) or propidium iodide (PI) staining (BMDC, splenocytes). For the MTT assay, the treatments were replaced with 100 μL of fresh complete medium and 15 μL of 5 mg/mL MTT solution. After 4 h incubation, 100 μL of stop/solubilization solution was added to the cells and incubated overnight. The absorbance of dissolved formazan was read by the SpectraMax M3 microplate reader (Molecular Devices, Sunnyvale, CA) at 560 nm. For PI staining, the treatments were removed and cells were rinsed with PBS, collected, and resuspended in 100 μL of cell staining buffer. Five microliters (40 ng) of PI staining solution was added to each sample immediately before the analysis by the BD Accuri C6 Flow Cytometer. The combination index (CI) was determined by Compusyn (Combosyn, Inc., Paramus, NJ). The values of CI<1, CI=1, and CI>1 represent synergy, additivity, and antagonism, respectively^53.

TLR-4 = target: T1, TLR-4 (Homo sapiens, UniProt O00206); test: TLR-4 activation assay, THP1-XBlue-MD2-CD14 reporter cells (SEAP); assay type: cell-based; conditions: at comparable concentrations
T1 construct: host or cells: THP1-XBlue-MD2-CD14 cells
Procedure: (§2) TLR-5 activation was tested with HEK-Blue™ mTLR5 Cells, TLR-5 reporter cells (Invitrogen, Carlsbad, CA). The TLR-4 reporter cells were plated in a 96 well plate at a density of 100,000 cells per well in RPMI medium. The TLR-5 reporter cells were plated in a 96 well plate with a density of 25,000 cells per well in HEK-Blue™ Detection medium. […] The supernatant was collected for secreted embryonic alkaline phosphatase (SEAP) assay. The absorbance of SEAP was measured at 620 nm.

CT26 tumors [1] = test: Antitumor effects in Balb/c mice with bilateral CT26 tumors; assay type: in vivo; conditions: single IT injection, 1 mg 2E′ (+0.2 mg PTX) per mouse
Procedure: Tumors were established in both flanks simultaneously by subcutaneous inoculation. 1×10^6 of CT26 cells were innoculated in the flank of the right hind limb, and 3×10^5 of CT26 cells in the left flank of the same mouse. […] The sizes of the treated tumor and the non-treated tumor on the left side were measured with a digital caliper every other day, and tumor volumes were calculated as (width^2×length)/2.

CT26 cells = test: Cytotoxicity, MTT assay; assay type: cell-based, mouse
Procedure: CT26 cells, B16F10 cells, BMDC, or splenocytes were seeded in a 96 well plate at a density of 8,000 cells per well (CT26, B16F10) or 15,000 cells per well (BMBCs, splenocytes). […] After incubation for another 24 h, the cell cytotoxicity was measured by the MTT assay (CT26, B16F10) or propidium iodide (PI) staining (BMDC, splenocytes). […] The values of CI<1, CI=1, and CI>1 represent synergy, additivity, and antagonism, respectively^53.

CT26 tumors [2] = test: Antitumor effects in Balb/c mice with CT26 tumors and delayed rechallenge(s) of live cells; assay type: in vivo
From the text: Tumor growth was monitored as described above. To test whether antitumor immunity was established, the mice surviving with complete tumor remission by 30 days from the treatment were rechallenged with 1×10^5 live CT26 cells on the contralateral flank. The mice resistant to the first rechallenge were challenged again with 2×10^6 live CT26 cells on 60 days from the treatment. In two separate experiments, surviving Balb/c mice were rechallenged once on 6 or 17 days after the treatment.

BMDCs and BMDMs = test: Cytokine production from BMDC and BMDM (ELISA); assay type: cell-based, mouse; conditions: 24 h
Procedure: as §1
After 24 h incubation, the cells were collected, resuspended in staining buffer, incubated with Fc-blocking antibody for 15 min at 4° C., labeled with anti-mouse CD11c, CD86, CD40, and MHC-II antibodies for 20 min at 4° C., and analyzed by the BD Accuri C6 Flow Cytometer. […] After 24 h, the media were analyzed for IL-1β and TNF-α by ELISA (Invitrogen, Carlsbad, CA) according to the manufacturer's protocols.

TLR-5 = target: T2, TLR-5 (Mus musculus, UniProt Q9JLF7); test: TLR-5 activation assay, HEK-Blue mTLR5 reporter cells (SEAP); assay type: cell-based; conditions: TLR reporter cell line, colorimetric SEAP
T2 construct: host or cells: HEK-Blue mTLR5 cells
Procedure: as §2

BMDCs and JAWSII DCs = test: BMDC and JAWSII DC stimulation (maturation markers, flow cytometry); assay type: cell-based, mouse
CT26 and B16F10 cells = test: CRT expression in tumor cells; assay type: cell-based, mouse
Procedure: 2×10^5 CT26 or B16F10 cells were seeded in a 6-well plate overnight. […] After 6 h or 24 h, the cells were collected, resuspended in staining buffer, incubated with anti-mouse CD16/32 antibody to block non-specific binding of the immunoglobulin to Fc receptors, and stained with Alexa Fluor 488-conjugated anti-CRT monoclonal antibody (ab196158, Abcam). The cells were incubated with 0.5 μg/mL propodium iodide for 1 min prior to the analysis with the BD Accuri C6 Flow Cytometer. For visualizing CRT exposure, 2×10^5 CT26 or B16F10 cells were seeded in a confocal dish, incubated with different treatments for 24 h, washed, stained in the same manner as above, and fixed with 4% paraformaldehyde. Confocal images of the fixed cells were taken with the Nikon A1R confocal microscope (Nikon America Inc., Melville, NY) after brief staining with 2 μg/mL Hoechst 33342.

[3] = system: DCs or BMDMs co-cultured with CT26 or B16F10 cells; conditions: PTX-pretreated CT26 or B16F10 cells, with 7 μg/mL 2E′
Procedure: CT26 or B16F10 cancer cells were stained with Cell Tracker Green (Invitrogen, Carlsbad, CA) for 1 h and treated with 5 μg/mL PTX for 24 h. […] The co-cultured cells were collected, resuspended in staining buffer, and analyzed by the BD Accuri C6 Flow Cytometer or BD LSRFortessa Flow Cytometer (San Jose, CA, USA). DCs taking up the PTX-treated cancer cells (cancer cell^+ DC or macrophages) was quantified as the percentage of double-positive cells in Cell-Tracker Deep Red-stained BMDC, JAWSII DC or BMDM, and the phagocytized cancer cells as the percentage of double-positive cells in Cell Tracker Green-stained cancer cells.

T2 sequence (Q9JLF7 27-859): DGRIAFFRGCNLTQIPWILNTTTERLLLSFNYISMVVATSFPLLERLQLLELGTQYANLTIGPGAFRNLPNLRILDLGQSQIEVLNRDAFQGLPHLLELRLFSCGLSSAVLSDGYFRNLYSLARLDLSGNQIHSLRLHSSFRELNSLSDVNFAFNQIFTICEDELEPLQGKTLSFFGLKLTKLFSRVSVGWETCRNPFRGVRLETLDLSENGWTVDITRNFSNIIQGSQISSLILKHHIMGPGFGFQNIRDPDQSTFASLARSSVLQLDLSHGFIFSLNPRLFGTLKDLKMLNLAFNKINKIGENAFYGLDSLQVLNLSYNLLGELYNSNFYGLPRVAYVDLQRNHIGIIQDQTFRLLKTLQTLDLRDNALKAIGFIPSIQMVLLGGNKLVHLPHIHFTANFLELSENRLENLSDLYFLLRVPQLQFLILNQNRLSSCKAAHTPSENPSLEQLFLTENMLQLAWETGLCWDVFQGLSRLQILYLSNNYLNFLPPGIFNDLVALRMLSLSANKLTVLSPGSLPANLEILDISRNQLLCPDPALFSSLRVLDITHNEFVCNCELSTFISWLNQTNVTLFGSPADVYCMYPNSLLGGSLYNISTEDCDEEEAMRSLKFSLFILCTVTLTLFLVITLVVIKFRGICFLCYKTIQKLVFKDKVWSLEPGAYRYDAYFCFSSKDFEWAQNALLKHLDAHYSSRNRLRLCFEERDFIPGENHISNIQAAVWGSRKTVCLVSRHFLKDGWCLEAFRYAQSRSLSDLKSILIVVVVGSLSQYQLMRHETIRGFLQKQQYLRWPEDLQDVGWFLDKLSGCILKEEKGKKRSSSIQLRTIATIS
T1 sequence (O00206 24-839): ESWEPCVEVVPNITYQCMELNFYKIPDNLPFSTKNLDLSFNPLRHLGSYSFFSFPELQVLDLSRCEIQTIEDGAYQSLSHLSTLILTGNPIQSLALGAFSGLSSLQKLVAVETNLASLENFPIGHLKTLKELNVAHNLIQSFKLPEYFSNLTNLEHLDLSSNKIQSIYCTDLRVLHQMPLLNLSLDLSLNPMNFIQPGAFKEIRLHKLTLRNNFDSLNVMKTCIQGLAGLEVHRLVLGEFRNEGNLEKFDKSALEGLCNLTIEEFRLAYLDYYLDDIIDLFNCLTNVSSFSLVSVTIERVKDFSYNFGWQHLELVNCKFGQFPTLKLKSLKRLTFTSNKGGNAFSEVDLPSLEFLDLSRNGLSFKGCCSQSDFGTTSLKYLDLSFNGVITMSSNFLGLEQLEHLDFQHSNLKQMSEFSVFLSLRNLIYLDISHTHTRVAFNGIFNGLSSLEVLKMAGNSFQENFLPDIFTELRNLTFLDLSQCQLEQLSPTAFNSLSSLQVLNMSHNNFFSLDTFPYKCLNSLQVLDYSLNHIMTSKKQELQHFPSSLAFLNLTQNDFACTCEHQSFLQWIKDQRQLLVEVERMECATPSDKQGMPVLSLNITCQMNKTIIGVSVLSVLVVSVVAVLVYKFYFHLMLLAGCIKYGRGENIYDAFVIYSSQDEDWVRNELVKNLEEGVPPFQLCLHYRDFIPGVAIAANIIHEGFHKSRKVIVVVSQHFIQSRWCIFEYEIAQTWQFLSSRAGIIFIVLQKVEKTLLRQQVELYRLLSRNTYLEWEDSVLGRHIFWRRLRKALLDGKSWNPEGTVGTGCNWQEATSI
T1 sequence (Q9Y6Y9 17-160 partner limits assumed): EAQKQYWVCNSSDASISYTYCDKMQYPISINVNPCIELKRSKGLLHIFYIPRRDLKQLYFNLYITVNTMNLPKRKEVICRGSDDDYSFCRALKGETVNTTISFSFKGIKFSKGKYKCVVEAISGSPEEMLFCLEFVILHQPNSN

Molecule | cytotoxicity to BMDCs (BMDCs) | cytotoxicity to splenocytes (splenocytes) | toxicity to B16F10 cells relative to BMDCs (B16F10 cells) | TLR-4 signaling (TLR-4) | growth of untreated distant tumors vs D5W (CT26 tumors [1]) | mice with complete regression (CR) of the treated tumors (CT26 tumors [1]) | toxicity to CT26 cells relative to normal splenocytes (CT26 cells) | toxicity to CT26 cells relative to BMDCs (CT26 cells; 24 h incubation) | mice with CR (tumor-free) (CT26 tumors [2]; 1 mg 2E′, 0.2 mg/mL PTX, 0.67 mg siRNA, single IT, n=8) | animals with CR of the treated tumors (CT26 tumors [2]; 1.4 mg 2E′ (+0.2 mg PTX) per mouse, single IT) | tumor-free mice in which growth of rechallenged tumor was prevented (CT26 tumors [2]; 1.4 mg 2E′ (+0.2 mg PTX), rechallenge with live CT26 cells day 17) | mice with growth of primary tumors inhibited (CT26 tumors [2]; 2.7 mg 2E′ (+0.4 mg PTX) per mouse, single IT) | mice with no tumor growth of untreated distant tumor (CT26 tumors [2]; 2.7 mg 2E′ (+0.4 mg PTX), distant tumor inoculated 6 days after treatment) | tumor growth after second rechallenge (CT26 tumors [2]; 2×10^6 live CT26 cells) | TNF-α and IL-1β production/secretion (BMDCs and BMDMs) | TLR-5 signaling (TLR-5) | maturation of DCs (BMDCs and JAWSII DCs; BMDCs, JAWSII DCs, 24 h) | immunostimulatory responses relative to PEI (BMDCs and JAWSII DCs; all tests: DC maturation, TNF-α/IL-1β, TLR-5, CRT) | cell surface calreticulin (CRT) exposure (CT26 and B16F10 cells) | fractions of DCs or BMDMs taking up cancer cells and of cancer cells taken up [3]
CC(=O)O[C@H]1C(=O)[C@@]2(C)[C@H]([C@H](OC(=O)c3ccccc3)[C@]3(O)C[C@H](OC(=O)[C@H](O)[C@@H](NC(=O)c4ccccc4)c4ccccc4)C(C)=C1C3(C)C)[C@]1(OC(C)=O)CO[C@@H]1C[C@@H]2O [PTX, paclitaxel] | did not show significant cytotoxicity | did not show significant cytotoxicity | – | – | – | – | – | – | – | – | – | – | – | – | – | – | – | – | – | –
Polyethyleneimine-Lithocholic Acid Conjugate [2E′] | – | – | more toxic to CT26 and B16F10 cells than to bone marrow-derived DCs | Neither 2E′ nor PEI activated TLR-4 signaling | the difference was insignificant | 60% | greater toxicity to CT26 cells than normal splenocytes | more toxic to CT26 and B16F10 cells than to bone marrow-derived DCs | 50% | 40% | one of the two | 57% | 57% | exponential tumor growth in 10-15 days after the second challenge | promoted the production | activated TLR-5 signaling | induced the maturation of BMDCs and JAWSII DCs | induced greater responses than PEI | exposed the cell surface calreticulin (CRT) | substantially increased
